Activity calls are given as the source filed them.
Experiments:
[1] = target: T1, Polyadenylate-binding protein 1 (Homo sapiens, UniProt P11940); assay: PABP1 MLLE–PAM2 binding inhibitor potency, dose response, biochemical, fluorescence polarization, FITC-PAM2 peptide (AID 602259); format: functional; conditions: read-out: IC50_Mean
[2] = target: T1, Polyadenylate-binding protein 1; assay: PABP1 MLLE–PAM2 interaction inhibitors, dose response, miRNA deadenylation inhibitor project, biochemical, fluorescence polarization, Cy5-PAM2 peptide, secondary (AID 602260); format: functional; conditions: read-out: IC50_Mean
[3] = target: Female germline-specific tumor suppressor gld-1 (Caenorhabditis elegans, UniProt Q17339); assay: inhibitors of GLD-1 binding to TGE RNA, dose response, biochemical, fluorescence polarization, C. elegans (AID 2802);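 further: fluorescence polarization of labeled TGE RNA bound by purified gld-1 protein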
Protein Rev = Protein Rev (Human immunodeficiency virus type 1 group M subtype B (isolate HXB2)(HIV-1), UniProt P04618); assay: inhibitors of Rev binding to RRE RNA, dose response, biochemical, fluorescence polarization, HIV-1 (AID 434976); design: species or system Human immunodeficiency virus 1
Staphylococcus aureus = assay: Inhibitors of Bacterial Quorum Sensing Structure Activity Relationship (SAR) Analysis: Dose Response Assay. [Related pubchem assays: 700, 527 ]; format: functional, organism-based
[4] = target: T2, Tyrosine-protein phosphatase non-receptor type 7 (Homo sapiens, UniProt P35236); format: functional
T2 sequence (P35236 whole entry): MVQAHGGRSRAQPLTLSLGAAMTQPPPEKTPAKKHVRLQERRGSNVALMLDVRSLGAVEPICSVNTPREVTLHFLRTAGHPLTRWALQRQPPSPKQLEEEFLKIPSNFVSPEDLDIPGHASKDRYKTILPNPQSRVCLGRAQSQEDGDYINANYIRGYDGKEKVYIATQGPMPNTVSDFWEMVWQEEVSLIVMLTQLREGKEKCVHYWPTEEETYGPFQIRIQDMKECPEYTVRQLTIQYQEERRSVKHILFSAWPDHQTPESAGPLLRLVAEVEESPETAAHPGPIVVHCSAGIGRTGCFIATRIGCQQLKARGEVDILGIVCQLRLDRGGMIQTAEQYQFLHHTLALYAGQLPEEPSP

[5] = target: T3, Dual specificity protein phosphatase 6 (Rattus norvegicus, UniProt Q64346)
T3 sequence (Q64346 whole entry): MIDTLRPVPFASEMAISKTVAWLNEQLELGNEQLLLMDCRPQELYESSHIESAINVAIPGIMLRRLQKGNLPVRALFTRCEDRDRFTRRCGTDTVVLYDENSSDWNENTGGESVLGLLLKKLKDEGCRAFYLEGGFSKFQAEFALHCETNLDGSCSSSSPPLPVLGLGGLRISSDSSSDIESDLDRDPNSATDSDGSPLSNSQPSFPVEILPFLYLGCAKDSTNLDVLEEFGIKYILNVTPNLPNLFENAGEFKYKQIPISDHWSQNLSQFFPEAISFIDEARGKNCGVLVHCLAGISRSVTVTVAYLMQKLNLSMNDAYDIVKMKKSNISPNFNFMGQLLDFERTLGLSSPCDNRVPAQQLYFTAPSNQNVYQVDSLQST

[6] = target: Glyceraldehyde-3-phosphate dehydrogenase (Homo sapiens, UniProt P04406)
[7] = target: T3, Dual specificity protein phosphatase 6; format: functional
[8] = target: Melanin-concentrating hormone receptor 1 (Homo sapiens, UniProt Q99705); assay: Late-stage fluorescence-based counterscreen for antagonists of the G-protein coupled receptor 7 (GPR7): cell-based dose response assay to identify antagonists of the melanin-concentrating hormone receptor 1 (MCHR1). [Related pubchem assays (depositor defined):AID1861, AID1880, AID1952, AID2148, AID2251, AID2257, AID485339]; format: functional;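 further: stimulated with 30 nM MCH peptide agonist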
[9] = target: NACHT, LRR and PYD domains-containing protein 3 (Homo sapiens, UniProt Q96P20); assay: NALP3 inhibitors in yeast, dose response, luminescent (AID 488799); format: functional
[10] = target: Potassium voltage-gated channel subfamily KQT member 2 (Rattus norvegicus, UniProt O88943); assay: retigabine-insensitive KCNQ2 potentiators, concentration-response, dose response, cell-based, retigabine-insensitive compounds (AID 2654); format: functional
Beta-galactosidase = Beta-galactosidase (Escherichia coli, UniProt Q8VNN2); assay: beta-galactosidase enzyme inhibitors and activators, dose response, artefact control for CCR6 antagonist project, biochemical, E. coli enzyme, set 3 (AID 504712); format: functional
[11] = target: Mitochondrial peptide methionine sulfoxide reductase (Bos taurus, UniProt P54149); assay: Absorbance-based biochemical high throughput dose response assay for activators of Methionine sulfoxide reductase A (MsrA).; format: functional
H4 = assay: Luminescence Cell-Based Dose Response HTS to Identify Activators of 5'UTR Stem-Loop Driven Prion Protein mRNA Translation in H4 Neuroglioblastoma Cells. [Related pubchem assays: 1829 (Project Summary), 1814 (Primary HTS)]; format: functional; conditions: Homo sapiens
[12] = target: T4, Alkaline phosphatase, tissue-nonspecific isozyme (Homo sapiens, UniProt P05186)
T4 sequence (P05186 whole entry): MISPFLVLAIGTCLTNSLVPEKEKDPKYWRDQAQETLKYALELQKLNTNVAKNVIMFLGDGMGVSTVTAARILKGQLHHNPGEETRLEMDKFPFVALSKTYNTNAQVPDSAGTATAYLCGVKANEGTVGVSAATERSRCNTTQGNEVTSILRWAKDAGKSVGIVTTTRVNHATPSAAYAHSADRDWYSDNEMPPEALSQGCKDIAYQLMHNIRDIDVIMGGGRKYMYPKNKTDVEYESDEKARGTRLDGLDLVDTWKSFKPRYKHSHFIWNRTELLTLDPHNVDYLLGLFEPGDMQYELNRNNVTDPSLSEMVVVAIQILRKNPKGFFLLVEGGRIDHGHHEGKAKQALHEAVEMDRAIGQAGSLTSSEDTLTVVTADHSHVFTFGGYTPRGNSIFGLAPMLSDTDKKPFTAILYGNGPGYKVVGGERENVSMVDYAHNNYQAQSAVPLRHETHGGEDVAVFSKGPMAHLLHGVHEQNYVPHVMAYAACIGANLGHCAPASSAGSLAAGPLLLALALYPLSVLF

[13] = Luminescence Cell-Based Dose Response HTS to Identify Activators of Luciferase Translation or Activity in H4 […] Cells. [Related pubchem assays: 1829 (Project Summary), 1814 (Primary HTS)]; format: functional

T1 sequence (P11940 whole entry): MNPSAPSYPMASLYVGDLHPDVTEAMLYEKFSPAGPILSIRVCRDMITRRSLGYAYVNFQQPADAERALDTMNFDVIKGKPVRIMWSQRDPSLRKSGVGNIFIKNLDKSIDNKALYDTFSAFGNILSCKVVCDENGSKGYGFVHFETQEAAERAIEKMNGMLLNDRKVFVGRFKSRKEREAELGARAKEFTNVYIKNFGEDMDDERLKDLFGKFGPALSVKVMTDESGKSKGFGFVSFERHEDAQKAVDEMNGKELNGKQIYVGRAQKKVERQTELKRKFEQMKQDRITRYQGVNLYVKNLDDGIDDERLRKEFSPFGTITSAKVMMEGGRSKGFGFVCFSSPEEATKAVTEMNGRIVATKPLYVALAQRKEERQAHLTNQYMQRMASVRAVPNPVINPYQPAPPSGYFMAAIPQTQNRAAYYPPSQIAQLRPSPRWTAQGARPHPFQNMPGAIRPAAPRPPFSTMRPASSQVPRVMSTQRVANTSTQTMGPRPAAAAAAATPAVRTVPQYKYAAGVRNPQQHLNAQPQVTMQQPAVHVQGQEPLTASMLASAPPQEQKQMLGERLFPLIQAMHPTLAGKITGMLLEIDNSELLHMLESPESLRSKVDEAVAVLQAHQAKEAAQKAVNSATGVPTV
NACHT, LRR and PYD domains-containing protein 3, sequence (Q96P20 whole entry, the tested form may be a part): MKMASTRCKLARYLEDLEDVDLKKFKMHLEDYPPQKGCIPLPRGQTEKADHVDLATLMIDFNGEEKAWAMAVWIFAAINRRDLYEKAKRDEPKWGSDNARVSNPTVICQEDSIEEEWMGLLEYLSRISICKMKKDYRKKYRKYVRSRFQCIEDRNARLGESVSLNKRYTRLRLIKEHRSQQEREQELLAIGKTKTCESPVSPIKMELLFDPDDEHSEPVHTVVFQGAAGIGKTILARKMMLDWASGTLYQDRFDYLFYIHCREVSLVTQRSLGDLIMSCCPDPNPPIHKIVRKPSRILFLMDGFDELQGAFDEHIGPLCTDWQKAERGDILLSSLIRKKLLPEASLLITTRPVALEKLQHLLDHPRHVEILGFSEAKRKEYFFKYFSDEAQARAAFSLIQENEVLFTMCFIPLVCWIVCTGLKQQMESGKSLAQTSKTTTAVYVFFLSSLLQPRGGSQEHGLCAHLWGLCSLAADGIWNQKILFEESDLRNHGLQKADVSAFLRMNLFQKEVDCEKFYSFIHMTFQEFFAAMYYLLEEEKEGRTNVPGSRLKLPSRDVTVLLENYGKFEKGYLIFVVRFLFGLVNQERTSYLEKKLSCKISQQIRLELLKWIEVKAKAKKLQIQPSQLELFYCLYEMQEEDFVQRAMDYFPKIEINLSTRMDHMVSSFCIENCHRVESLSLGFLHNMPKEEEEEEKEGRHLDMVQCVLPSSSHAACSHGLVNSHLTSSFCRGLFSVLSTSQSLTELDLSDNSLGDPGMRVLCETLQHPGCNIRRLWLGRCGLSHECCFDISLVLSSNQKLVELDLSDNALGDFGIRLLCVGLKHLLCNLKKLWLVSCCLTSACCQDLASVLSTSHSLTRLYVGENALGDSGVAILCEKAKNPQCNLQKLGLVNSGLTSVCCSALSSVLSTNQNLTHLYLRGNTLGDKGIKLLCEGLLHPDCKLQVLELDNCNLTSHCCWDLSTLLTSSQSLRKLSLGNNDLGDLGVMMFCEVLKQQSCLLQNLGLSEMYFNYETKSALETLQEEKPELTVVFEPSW
Glyceraldehyde-3-phosphate dehydrogenase, sequence (P04406 whole entry): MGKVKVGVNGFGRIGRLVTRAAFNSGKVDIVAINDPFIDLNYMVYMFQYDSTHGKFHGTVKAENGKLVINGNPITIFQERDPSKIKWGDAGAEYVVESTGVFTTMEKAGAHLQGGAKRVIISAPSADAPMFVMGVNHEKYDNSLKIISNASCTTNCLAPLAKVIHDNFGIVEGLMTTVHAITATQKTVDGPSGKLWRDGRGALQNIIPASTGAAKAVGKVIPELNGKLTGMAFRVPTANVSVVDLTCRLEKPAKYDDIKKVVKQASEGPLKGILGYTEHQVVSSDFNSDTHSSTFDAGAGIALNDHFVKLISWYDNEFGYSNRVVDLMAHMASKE
Melanin-concentrating hormone receptor 1, sequence (Q99705 whole entry, the tested form may be a part): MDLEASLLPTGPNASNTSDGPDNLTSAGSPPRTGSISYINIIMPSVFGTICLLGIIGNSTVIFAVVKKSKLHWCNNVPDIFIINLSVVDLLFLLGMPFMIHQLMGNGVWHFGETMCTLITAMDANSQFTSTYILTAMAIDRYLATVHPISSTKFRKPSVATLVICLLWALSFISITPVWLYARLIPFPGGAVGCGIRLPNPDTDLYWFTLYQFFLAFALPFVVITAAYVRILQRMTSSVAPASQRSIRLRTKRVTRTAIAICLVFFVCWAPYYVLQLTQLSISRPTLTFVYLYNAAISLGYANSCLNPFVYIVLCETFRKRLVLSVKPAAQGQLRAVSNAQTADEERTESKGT
Female germline-specific tumor suppressor gld-1, sequence (Q17339 whole entry): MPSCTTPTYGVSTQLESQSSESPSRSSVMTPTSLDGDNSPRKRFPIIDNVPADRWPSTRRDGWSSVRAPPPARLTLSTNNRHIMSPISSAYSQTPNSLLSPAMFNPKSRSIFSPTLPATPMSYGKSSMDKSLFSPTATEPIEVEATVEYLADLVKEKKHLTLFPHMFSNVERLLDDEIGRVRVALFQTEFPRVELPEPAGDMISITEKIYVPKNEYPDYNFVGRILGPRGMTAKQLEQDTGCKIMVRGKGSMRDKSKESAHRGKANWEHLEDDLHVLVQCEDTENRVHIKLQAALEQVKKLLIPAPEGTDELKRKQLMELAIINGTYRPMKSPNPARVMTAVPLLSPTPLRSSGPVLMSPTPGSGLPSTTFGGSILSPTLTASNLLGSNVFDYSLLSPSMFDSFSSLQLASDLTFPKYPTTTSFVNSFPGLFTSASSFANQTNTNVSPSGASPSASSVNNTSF
Protein Rev, sequence (P04618 whole entry): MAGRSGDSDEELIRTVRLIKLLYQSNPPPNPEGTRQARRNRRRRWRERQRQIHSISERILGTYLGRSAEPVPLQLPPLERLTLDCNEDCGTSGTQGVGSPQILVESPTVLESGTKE
Mitochondrial peptide methionine sulfoxide reductase, sequence (P54149 whole entry): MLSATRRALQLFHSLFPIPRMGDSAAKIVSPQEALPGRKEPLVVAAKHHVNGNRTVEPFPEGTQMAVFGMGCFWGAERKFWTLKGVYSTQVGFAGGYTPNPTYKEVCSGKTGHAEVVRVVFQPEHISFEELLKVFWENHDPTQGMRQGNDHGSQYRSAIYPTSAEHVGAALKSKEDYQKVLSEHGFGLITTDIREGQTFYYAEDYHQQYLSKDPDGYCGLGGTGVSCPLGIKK
Beta-galactosidase, sequence (Q8VNN2 whole entry): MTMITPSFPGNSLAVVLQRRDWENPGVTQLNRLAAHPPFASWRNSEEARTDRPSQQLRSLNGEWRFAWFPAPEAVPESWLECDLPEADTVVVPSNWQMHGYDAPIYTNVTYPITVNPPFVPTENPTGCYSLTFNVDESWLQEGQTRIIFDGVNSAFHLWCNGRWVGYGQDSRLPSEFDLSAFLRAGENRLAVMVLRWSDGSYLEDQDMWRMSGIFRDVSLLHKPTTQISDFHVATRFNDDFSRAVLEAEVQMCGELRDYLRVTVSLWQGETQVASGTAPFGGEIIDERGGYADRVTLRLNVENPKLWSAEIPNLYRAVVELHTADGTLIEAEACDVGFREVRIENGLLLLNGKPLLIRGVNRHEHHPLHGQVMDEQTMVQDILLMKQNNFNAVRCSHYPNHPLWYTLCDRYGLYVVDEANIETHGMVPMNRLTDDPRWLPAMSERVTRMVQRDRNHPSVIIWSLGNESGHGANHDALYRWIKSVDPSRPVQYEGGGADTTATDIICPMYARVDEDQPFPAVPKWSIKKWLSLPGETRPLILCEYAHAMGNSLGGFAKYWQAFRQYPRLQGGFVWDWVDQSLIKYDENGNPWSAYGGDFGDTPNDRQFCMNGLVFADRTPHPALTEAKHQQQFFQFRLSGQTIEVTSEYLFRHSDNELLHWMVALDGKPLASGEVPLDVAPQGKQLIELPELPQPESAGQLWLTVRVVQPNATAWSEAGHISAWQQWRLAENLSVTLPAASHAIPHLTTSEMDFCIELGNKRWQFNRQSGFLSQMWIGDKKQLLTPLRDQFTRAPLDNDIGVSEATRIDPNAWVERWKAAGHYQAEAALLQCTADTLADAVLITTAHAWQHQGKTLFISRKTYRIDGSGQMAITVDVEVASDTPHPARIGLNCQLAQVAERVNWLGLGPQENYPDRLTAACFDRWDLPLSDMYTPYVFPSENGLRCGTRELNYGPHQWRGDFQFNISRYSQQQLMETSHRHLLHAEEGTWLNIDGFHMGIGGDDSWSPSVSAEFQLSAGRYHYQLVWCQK

COc1ccc2nc(N3CCCCC3)c(C#N)cc2c1
IC50 [1]: 18.5 µM (active)
IC50 [2]: > 66 µM (inactive)
IC50 [3]: 6.28 µM (active)
IC50 (Protein Rev): 14.8 µM (not active)

CC(=O)c1cc2c(cc1NC(=O)CN1CCN(C(c3ccccc3)c3ccccc3)CC1)OCO2
IC50 (Staphylococcus aureus): 1.51 µM (active)

Cn1c(SCC(=O)O)nc2sc3c(c2c1=O)CCC3
IC50 [4]: > 100 µM (not active)
IC50 [5]: > 100 µM (inactive)
IC50 [6]: > 100 µM (not active)
IC50 [7]: > 100 µM (inactive)

COc1ccc(Oc2c(Cl)cnn(-c3ccc(C(C)C)c(C)c3)c2=O)cc1
IC50 [8]: 2 µM (active)

COc1cccc(NC(=O)c2ccccc2)c1
IC50 [9]: 13.7 µM (active)

S=C(Nc1ccc(Nc2ccccc2)cc1)Nc1cccnc1
EC50 [10]: 11 µM (active)

CS(=O)(=O)c1cc([N+](=O)[O-])c(Sc2nc3ccccc3[nH]2)c([N+](=O)[O-])c1
IC50 (Beta-galactosidase): > 66.6 µM (inactive)
EC50 [11]: > 104 µM (inactive)

Cc1ccc(-c2cc(-c3ccccc3[N+](=O)[O-])[nH]n2)c(O)c1
EC50 (H4): > 120 µM (not active)
EC50 [12]: 80.2 µM (not active)
EC50 [13]: 2.35 µM (inconclusive)

Source: ChEMBL document CHEMBL1201862, “PubChem BioAssay data set” (2004)
